Laboratory results as given in publication PMC12587574, “Mass balance, pharmacokinetics, metabolism, and excretion of radiolabeled acoziborole, a potential novel treatment for human African trypanosomiasis, following single microtracer oral dose to humans” (Antimicrobial Agents and Chemotherapy, 2025).
Where “and” joins values, the source holds several entries; their conditions need not be identical. Equal values may be shown once.

Key:
[1] = Metabolite profiling and identification in pools of plasma, urine and feces (UPLC-MS, AMS); type: in vivo, human
Method: Individual pools of plasma (0–336 h, including time points at 1, 4, 9, 12, 24, 48, 72, 96, 120, 168, 240, and 336 h), urine (0–240 h, including time intervals 0–6, 6–12, 12–24, 24–48, 48–72, 72–96, 96–120, 120–168, 168–192, 192–216, and 216–240 h) and feces homogenates (0–240 h, including time intervals 0–6, 6–12, 12–24, 24–48, 48–72, 72–96, 96–120, 120–168, and 168–240 h) were prepared; for plasma this was done according to the method described in reference and for feces by using equal percentages per time point based on total volume. Subsequently, a pool per matrix was prepared by mixing equal volumes of each participant pool. In addition, a plasma pre-dose pool was prepared by mixing equal volumes of each pre-dose sample. For urine and feces, TNO blank pool was used to generate a pre-dose sample. Samples were stored below −18°C. Samples (100 µL plasma, 250 µL urine, and 200 mg feces) were pre-treated and injected onto an ultra-high performance liquid chromatography (UPLC)-MS system (Acquity UPLC system [Waters] coupled to a Q-Exactive [Thermo]; Acquity HSS C18 VanGuard 5 mm × 2.1 mm, 1.8 µm [Waters] pre-column and Acquity HSS C18 100 mm × 2.1 mm, 1.8 µm d.p. [Waters]). Fractions were collected and analyzed off-line by AMS. AMS analysis was performed on an AMS system, consisting of an elemental analyzer, a double gas interface, and a 1 MV multi-element AMS. All fecal homogenate sample analyzes were performed in triplicate. Plasma pre-dose and TNO blank urine and feces pools were used for background correction. The UPLC method qualification included determination of retention time stability and extraction recovery. Metabolites were tentatively assigned to fractions in which activity greater than the baseline was observed, based on retention time and structural information provided by DNDi. Presence of the metabolite was confirmed by accurate mass data from high-resolution mass spectrometric analysis.

[2] = Safety and tolerability assessment, phase I mass balance study; type: in vivo, human
Method: Safety was assessed by adverse event (AE) reports and at specific times during the physical examination, vital signs, 12-lead ECGs, and laboratory evaluations (see Supplementary Information section 2). AEs were all recorded from the time participants signed the consent form until the follow-up call, 5–10 days after final study discharge, and were evaluated for type, severity, frequency of AEs, and relationship to the IP.

[3] = tested on: T.b. gambiense; parameters: method as in PMID 21738803; conditions: oral 5–25 mg/kg/day; acute and chronic infection; cited from earlier work
[4] = parameters: method as in PMID 21738803; conditions: NHPs, cited from earlier work
[5] = parameters: method as in PMID 21738803; conditions: liver sub-cellular fractions from rodents, dogs, cynomolgus monkeys, and humans; cited from earlier work

CC1(C)OB(O)c2cc(NC(=O)c3ccc(F)cc3C(F)(F)F)ccc21 [acoziborole]
proportion of the dose excreted, urine and feces combined ([1]; 0–240 h pools): 34.2% | abundance relative to dose, feces ([1]; feces homogenates 0–240 h): 33.6% | relative abundance in radiochromatogram, feces homogenates pool ([1]; feces homogenates 0–240 h): 66.0% | relative abundance in radiochromatogram (share of total radioactivity), plasma pool ([1]; plasma pool 0–336 h, 960 mg single oral [14C]-acoziborole, listed as Parent (acoziborole)): 95.1% | abundance relative to dose, urine ([1]; urine pool 0–240 h): 0.6% and < 1% | relative abundance in radiochromatogram, urine pool ([1]; urine pool 0–240 h): 7.6% | abundance relative to dose, urine ([1]; urine pool 0–240 h, listed as Parent (acoziborole)): 0.6% | overall tolerability ([2]; 960 mg single oral dose, N = 6): well-tolerated overall | Balanitis candida, participants ([2]; Day 1, N = 6): 0 (0.0) 0 (0.0) n (%) | Blood glucose increased, participants ([2]; Day 1, N = 6): 0 (0.0) 0 (0.0) n (%) | Gastrointestinal disorders (system organ class), events ([2]; Day 1, N = 6): 0 | Gastrointestinal disorders (system organ class), participants ([2]; Day 1, N = 6): 0 (0.0) n (%) | Headache, events ([2]; Day 1, N = 6): 2 | Headache, participants ([2]; Day 1, N = 6): 2 (33.3) n (%) | Infections and infestation (system organ class), events ([2]; Day 1, N = 6): 0 | Infections and infestation (system organ class), participants ([2]; Day 1, N = 6): 0 (0.0) n (%) | Injury, poisoning and procedural complications (system organ class), events ([2]; Day 1, N = 6): 0 | Injury, poisoning and procedural complications (system organ class), participants ([2]; Day 1, N = 6): 0 (0.0) n (%) | Investigations (system organ class), events ([2]; Day 1, N = 6): 0 | Investigations (system organ class), participants ([2]; Day 1, N = 6): 0 (0.0) n (%) | Myalgia, events ([2]; Day 1, N = 6): 0 | Myalgia, participants ([2]; Day 1, N = 6): 0 (0.0) n (%) | Nervous system disorders (system organ class), events ([2]; Day 1, N = 6): 2 | Nervous system disorders (system organ class), participants ([2]; Day 1, N = 6): 2 (33.3) n (%) | Phosphokinase increased, participants ([2]; Day 1, N = 6): 0 (0.0) 0 (0.0) n (%) | Rhinitis, participants ([2]; Day 1, N = 6): 0 (0.0) 0 (0.0) n (%) | Skin laceration, events ([2]; Day 1, N = 6): 0 | Skin laceration, participants ([2]; Day 1, N = 6): 0 (0.0) n (%) | Surgical and medical procedures (system organ class), events ([2]; Day 1, N = 6): 0 | Surgical and medical procedures (system organ class), participants ([2]; Day 1, N = 6): 0 (0.0) n (%) | TEAEs, events ([2]; Day 1, N = 6): 2 | TEAEs, participants ([2]; Day 1, N = 6): 2 (33.3) n (%) | Tooth repair, events ([2]; Day 1, N = 6): 0 | Tooth repair, participants ([2]; Day 1, N = 6): 0 (0.0) n (%) | Toothache, events ([2]; Day 1, N = 6): 0 | Toothache, participants ([2]; Day 1, N = 6): 0 (0.0) n (%) | Balanitis candida, events ([2]; Day 2 to Day 15, N = 6): 2 | Balanitis candida, participants ([2]; Day 2 to Day 15, N = 6): 1 (16.7) n (%) | Blood glucose increased, events ([2]; Day 2 to Day 15, N = 6): 0 | Blood glucose increased, participants ([2]; Day 2 to Day 15, N = 6): 0 (0.0) n (%) | Gastrointestinal disorders (system organ class), events ([2]; Day 2 to Day 15, N = 6): 1 | Gastrointestinal disorders (system organ class), participants ([2]; Day 2 to Day 15, N = 6): 1 (16.7) n (%) | Headache, events ([2]; Day 2 to Day 15, N = 6): 1 | Headache, participants ([2]; Day 2 to Day 15, N = 6): 1 (16.7) n (%) | Infections and infestation (system organ class), events ([2]; Day 2 to Day 15, N = 6): 2 | Infections and infestation (system organ class), participants ([2]; Day 2 to Day 15, N = 6): 1 (16.7) n (%) | Injury, poisoning and procedural complications (system organ class), events ([2]; Day 2 to Day 15, N = 6): 0 | Injury, poisoning and procedural complications (system organ class), participants ([2]; Day 2 to Day 15, N = 6): 0 (0.0) n (%) | Investigations (system organ class), events ([2]; Day 2 to Day 15, N = 6): 1 | Investigations (system organ class), participants ([2]; Day 2 to Day 15, N = 6): 1 (16.7) n (%) | Myalgia, events ([2]; Day 2 to Day 15, N = 6): 0 | Myalgia, participants ([2]; Day 2 to Day 15, N = 6): 0 (0.0) n (%) | Nervous system disorders (system organ class), events ([2]; Day 2 to Day 15, N = 6): 1 | Nervous system disorders (system organ class), participants ([2]; Day 2 to Day 15, N = 6): 1 (16.7) n (%) | Phosphokinase increased, events ([2]; Day 2 to Day 15, N = 6): 1 | Phosphokinase increased, participants ([2]; Day 2 to Day 15, N = 6): 1 (16.7) n (%) | Rhinitis, events ([2]; Day 2 to Day 15, N = 6): 0 | Rhinitis, participants ([2]; Day 2 to Day 15, N = 6): 0 (0.0) n (%) | Skin laceration, events ([2]; Day 2 to Day 15, N = 6): 0 | Skin laceration, participants ([2]; Day 2 to Day 15, N = 6): 0 (0.0) n (%) | Surgical and medical procedures (system organ class), events ([2]; Day 2 to Day 15, N = 6): 1 | Surgical and medical procedures (system organ class), participants ([2]; Day 2 to Day 15, N = 6): 1 (16.7) n (%) | TEAEs, events ([2]; Day 2 to Day 15, N = 6): 6 | TEAEs, participants ([2]; Day 2 to Day 15, N = 6): 4 (66.7) n (%) | Tooth repair, events ([2]; Day 2 to Day 15, N = 6): 1 | Tooth repair, participants ([2]; Day 2 to Day 15, N = 6): 1 (16.7) n (%) | Toothache, events ([2]; Day 2 to Day 15, N = 6): 1 | Toothache, participants ([2]; Day 2 to Day 15, N = 6): 1 (16.7) n (%) | Balanitis candida, events ([2]; Day 16 to end of study, N = 6): 0 | Balanitis candida, participants ([2]; Day 16 to end of study, N = 6): 0 (0.0) n (%) | Blood glucose increased, events ([2]; Day 16 to end of study, N = 6): 1 | Blood glucose increased, participants ([2]; Day 16 to end of study, N = 6): 1 (16.7) n (%) | Gastrointestinal disorders (system organ class), events ([2]; Day 16 to end of study, N = 6): 0 | Gastrointestinal disorders (system organ class), participants ([2]; Day 16 to end of study, N = 6): 0 (0.0) n (%) | Headache, events ([2]; Day 16 to end of study, N = 6): 1 | Headache, participants ([2]; Day 16 to end of study, N = 6): 1 (16.7) n (%) | Infections and infestation (system organ class), events ([2]; Day 16 to end of study, N = 6): 1 | Infections and infestation (system organ class), participants ([2]; Day 16 to end of study, N = 6): 1 (16.7) n (%) | Injury, poisoning and procedural complications (system organ class), events ([2]; Day 16 to end of study, N = 6): 1 | Injury, poisoning and procedural complications (system organ class), participants ([2]; Day 16 to end of study, N = 6): 1 (16.7) n (%) | Investigations (system organ class), events ([2]; Day 16 to end of study, N = 6): 1 | Investigations (system organ class), participants ([2]; Day 16 to end of study, N = 6): 1 (16.7) n (%) | Myalgia, events ([2]; Day 16 to end of study, N = 6): 1 | Myalgia, participants ([2]; Day 16 to end of study, N = 6): 1 (16.7) n (%) | Nervous system disorders (system organ class), events ([2]; Day 16 to end of study, N = 6): 1 | Nervous system disorders (system organ class), participants ([2]; Day 16 to end of study, N = 6): 1 (16.7) n (%) | Phosphokinase increased, events ([2]; Day 16 to end of study, N = 6): 0 | Phosphokinase increased, participants ([2]; Day 16 to end of study, N = 6): 0 (0.0) n (%) | Rhinitis, events ([2]; Day 16 to end of study, N = 6): 1 | Rhinitis, participants ([2]; Day 16 to end of study, N = 6): 1 (16.7) n (%) | Skin laceration, events ([2]; Day 16 to end of study, N = 6): 1 | Skin laceration, participants ([2]; Day 16 to end of study, N = 6): 1 (16.7) n (%) | Surgical and medical procedures (system organ class), events ([2]; Day 16 to end of study, N = 6): 0 | Surgical and medical procedures (system organ class), participants ([2]; Day 16 to end of study, N = 6): 0 (0.0) n (%) | TEAEs, events ([2]; Day 16 to end of study, N = 6): 5 | TEAEs, participants ([2]; Day 16 to end of study, N = 6): 3 (50.0) n (%) | Tooth repair, events ([2]; Day 16 to end of study, N = 6): 0 | Tooth repair, participants ([2]; Day 16 to end of study, N = 6): 0 (0.0) n (%) | Toothache, events ([2]; Day 16 to end of study, N = 6): 0 | Toothache, participants ([2]; Day 16 to end of study, N = 6): 0 (0.0) n (%) | TEAEs not considered related to the IP ([2]; N = 6): 10/13 | changes in ECG parameters, vital signs, or physical examination post-dose ([2]; N = 6): no significant changes | deaths, serious AEs, discontinuations due to AE ([2]; N = 6): no deaths, serious AEs, or participant discontinuations due to any AE | mean laboratory testing results (blood chemistry, hematology, urinalysis) ([2]; N = 6): within acceptable range or considered non-clinically significant | severity of reported TEAEs ([2]; N = 6): mild or moderate | Musculoskeletal and connective tissue disorders (system organ class), events ([2]; human, in vivo, 1 day): 0 | Musculoskeletal and connective tissue disorders (system organ class), participants ([2]; human, in vivo, 1 day): 0 (0.0) n (%) | treatment-emergent AEs, total number ([2]; in the six participants): 13 | effect on survival of infected mice [3]: significantly prolong survival | outcome of oral treatment in infected mice [3]: curative | concentration in the CSF as percentage of the plasma concentration ([4]; at each time point): approximately 5% | absolute bioavailability ([4]; oral): 89% | metabolic stability [5]: metabolically stable
